# According to US20030130200A1, “Small peptides and methods for treatment of asthma and inflammation” (Hisatek, LLC, priority 1997, published 2003):
# Entries after “also recorded” stand apart in the source; their conditions may differ. Where no end group is shown, it is not given here. The star is where a group is joined. For = O=C*
# Test system: OVA-sensitized/challenged mice
# Experiment: OVA allergen-induced airway inflammation mouse model, 28-day protocol, HK-X i.n. before challenges on days 25, 26, 27
# Format: in vivo, mouse (BALB/c)
# From the text: The above-described murine model reproduces key features of human asthma. Late-phase allergen-specific pulmonary disease was induced in normal BALB/c mice using ovalbumin (OVA) as allergen. One protocol includes immunization of mice with i.p. OVA on days 1 and 14, and intranasal (i.n.) administration of OVA on days 14, 25, 26. and 27.
# In a mouse model of allergen-induced airway inflammation, the role of mast cell in airway eosinophil infiltration, mucus release, and hyper-responsiveness to methacholine was examined.
# Materials were used as described above. Mice received an i.p. injection of 0.2 ml (100 ug) of OVA complexed with aluminum potassium sulfate (alum) on day 0 and 14. On days 14, 25, 26, and 27, mice were anesthetized with 0.2 ml i.p. of ketamine (0.44 mg/ml)/xylazine (6.3 mg/ml) in normal saline before receiving an intranasal (i.n.) dose of 100 ug OVA in 0.05 ml normal saline on days 25, 26, and 27. Lung tissue was obtained 24 hours after the last i.n. challenge on day 28. The control group received normal saline with alum i.p. on days 0 and 14 and normal saline without alum i.n. on days 14, 25, 26, and 27. To assess the effect of HK-X inhibition on OVA induced asthma, HK-X (10 ug/ml) was given i.n. 30 minutes before each i.n. challenge on days 25, 26, and 27.
# After tying off the left lung at the mainstem bronchus, the right lung was […] three times with 0.4 ml of normal saline. Bronchoalveolar lavage (BAL) fluid cells from a 0.05 ml aliquot of the pooled sample wee counted using a hemocytometer and the remaining fluid centrifuged at 4° C. for 10 minutes at 200 g. After resuspension of the cell pellet in normal saline containing 10% BSA, BAL cell smears were made on glass slides. To stain eosinophils, dried slides were stained with Discombe's diluting fluid (0.05% aqueous eosin and 5% (v/v) acetone in distilled water) for 5-8 minutes, rinsed with water for 0.5 minutes and counterstained with […] for 2 minutes
# Following BAL, the trachea and left lung (upper and lower lobes) were obtained and fixed in 10% buffered formalin solution at 20° C. forlS hours. After the tissues were processed and embeded in paraffin, the tissues were cut into 5 μm sections and stained with Discombe's solution and counterstained with methylene blue as described above or stained with Hematoxylin and eosin. The eosinophil number per unit airway area (2200 μm^2) was determined by morphometry as previously described. Airway mucus was identified by a variety of staining methods, i.e., methylene blue, Hematoxylin and eosin, mucicarmine, toluidine blue, alcian blue, and alcian blue/periodic acid Schiff (PAS) reaction. […] The degree of mucus plugging of the airways (0.5-0.8 mm in diameter) also was assessed by morphometry. […]
substance,measurement,setting,value
f-Met-Leu-Phe-Phe (For-MLFF) [Example 9],Cellular infiltration during asthmatic attack (histopathology),"10 μg HK-X intranasally 30 minutes prior to challenge, FIG. 9",reduces the cellular infiltration
same,Eosinophil influx into the lung tissue and BAL fluid,"OVA sensitized/challenged mice, FIGS. 8A, 9A, 10A",markedly reduced
same,Airway mucus release / secretion,"OVA sensitized/challenged mice, histopathology FIGS. 8A, 9A, 10A, listed as HK-X",prevented airway mucus release; also recorded: blocked the airway mucus release; also recorded: prevents the airway mucus secretion; also recorded: reduces the mucus secretion in airways
same,Reduction of eosinophil influx into the lung interstitium (morphometric analysis),"p<0.006 compared to OVA without HK-X, FIG. 11",90%
